System: P. berghei ookinete development
Conditions: for % inhibition, Replicate A / % inhibition, Replicate B: primary screen at 1 μM

Row | SMILES | % inhibition, Replicate A | % inhibition, Replicate B | IC50 (read-out: Pb Ookinete development assay IC50, dose response confirmation)
1 | Cl.O=C(CC1CCCC1)N(CC1CCN(Cc2ccc(C(F)(F)F)cc2)CC1)c1ccc(N2CCOCC2)c(F)c1 [TCMDC-135855] | 65.53% | 32.88% | 
2 | O=C(Nc1ccc(Cl)cc1)N(CC1CC2CCC(C1)N2Cc1ccc(C(F)(F)F)cc1)c1ccc(N2CCOCC2)c(F)c1 (centres unmarked) [TCMDC-135859] | 55.58% | 25.24% | 
3 | O=C(/C=C/c1ccc(Cl)c(Cl)c1)NCCCCCN1CCCN(C(=O)Nc2cc(Cl)nc(Cl)c2)CC1 [TCMDC-135888] | 61.66% | 48.73% | 
4 | Cc1nc2ccc(-c3ccc(OC(F)(F)F)cc3)cc2c(O)c1C#N [TCMDC-136129] | 117.05% | 93.07% | 
5 | Cc1[nH]cc(Br)c(=O)c1-c1ccc(Oc2ccc(OC(F)(F)F)cc2)cc1 [TCMDC-136197] | 35.07% | 51.32% | 
6 | CCc1ccc(NC(=O)c2ccc(CN3CCCN(CC4CCCCC4)CC3)cc2)cc1.O=C(O)C(F)(F)F [TCMDC-136437] | 48.61% | 52.92% | 
7 | CC(C)COc1ccc(Cl)cc1Cc1ccc(-c2nc3cnc4ccccc4c3[nH]2)o1 [TCMDC-136650] | 61.46% | 37.55% | 
8 | Cc1cnc(C(=O)Nc2cccc(-c3ccc(-c4nc5cc(C(F)(F)F)ccc5[nH]4)s3)c2)cn1 [TCMDC-137028] | 1.65% | 57.27% | 
9 | Cn1ncc2ccc(Nc3nccc(-c4ccc5c(c4)c(N)nn5C)n3)cc21 [TCMDC-137049] | 55.92% | 51.61% | 
10 | Cc1nc2ccccc2c(O)c1-c1ccc(Cl)cc1 [TCMDC-137172] | 27.10% | 52.76% | 
11 | Cc1nc2nc(N)nc(N)c2c(C)c1Cc1ccccc1I.Cl [TCMDC-137243] | 8.94% | 52.96% | 
12 | CCc1cc2c3c(N)nc(N)nc3ccc2n1C(CC)CC [TCMDC-137309] | 48.79% | 56.84% | 
13 | CC(C)n1c(C(C)(C)C)cc2c3c(N)nc(N)nc3ccc21 [TCMDC-137311] | 95.58% | 90.85% | 634 nM
14 | CNCCN(C)C(=O)Oc1c(Cl)c(C)nc(C)c1-c1ccc(Oc2ccc(OC(F)(F)F)cc2)cc1.Cl [TCMDC-137384] | 31.42% | 56.87% | 
15 | Cc1[nH]c(C)c(-c2ccc(Oc3cccc(Cl)c3)cc2)c(=O)c1Cl [TCMDC-137395] | 115.83% | 119.38% | 
16 | Cc1[nH]c(C)c(-c2ccc(S(=O)(=O)c3ccc(Cl)cc3)cc2)c(=O)c1Cl [TCMDC-137412] | 78.54% | 115.81% | 
17 | Cc1nc(C)c(-c2ccc(C(=O)c3ccccc3)cc2)c(O)c1Br [TCMDC-137419] | 112.31% | 126.66% | 
18 | CCN1CCN(CCCNc2c3ccc(Cl)cc3nc3ccc(OC)cc23)CC1.Cl [TCMDC-137586] | 79.33% | 90.04% | 
19 | CC=Cc1cc(Cc2c[nH]c(=N)[nH]c2=N)cc(CCC)c1OC [TCMDC-137634] | 54.07% | 40.96% | 

Row | SMILES | % inhibition, Replicate A | % inhibition, Replicate B | IC50 (read-out: Pb Ookinete development assay IC50, dose response confirmation)
20 | Cl.N=C(N)NN=Cc1cc2ccccc2c2ccccc12 [TCMDC-137671] | 63.22% | 44.77% | 
21 | CCCCCc1cnc2nc(N)nc(N)c2c1C.Cl [TCMDC-137717] | 60.03% | 27.06% | 
22 | CC(CO)(CO)NCc1cc2ccc3ccsc3c2c2ccccc12.CS(=O)(=O)O [TCMDC-137753] | 48.80% | 68.87% | 
23 | CC(C)(C)c1ccc(Cc2cccc3nc(N)nc(N)c23)cc1 [TCMDC-137821] | 61.67% | 24.79% | 
24 | CC(C)n1ncc2c3c(N)nc(N)nc3ccc21 [TCMDC-137866] | 87.47% | 39.71% | 
25 | Cl.N=C(N)NN=Cc1c2ccccc2c(Cl)c2c(Cl)cccc12 [TCMDC-137898] | 66.37% | 24.36% | 
26 | Cc1nc(N)nc(N)c1CCCOc1ccccc1Cl [TCMDC-137929] | 38.99% | 55.23% | 
27 | CCCc1cc2c3c(N)nc(N)nc3ccc2n1CC [TCMDC-137946] | 61.03% | 76.85% | 
28 | CCCC(CC)n1ccc2c3c(N)nc(N)nc3ccc21.CS(=O)(=O)O (centres unmarked) [TCMDC-137948] | 49.24% | 73.56% | 
29 | Cc1cc2c3c(N)nc(N)nc3ccc2n1C [TCMDC-137957] | 66.89% | 77.62% | 
30 | Cl.Nc1nc(N)c2c(ccc3nn(Cc4cccnc4)cc32)n1 [TCMDC-137968] | 30.53% | 62.42% | 
31 | COc1ccc(O)c(Cc2cnc3nc(N)nc(N)c3c2C)c1.O=C(O)C(F)(F)F [TCMDC-137998] | 11.48% | 55.44% | 
32 | COc1ccc2nc3cc(Cl)ccc3c(Nc3ccc(C(=O)O)cc3)c2c1.Cl [TCMDC-138029] | 92.30% | 90.70% | 
33 | C=CCc1cc(Cc2cnc(N)nc2N)cc(CCC)c1OC [TCMDC-138039] | 8.79% | 53.34% | 
34 | CCOC(=O)c1cc2c(CCN3C(=O)c4ccccc4C3=O)cn(C)c2cc1-c1ccncc1 [TCMDC-138099] | 54.94% | 51.34% | 
35 | CCC[C@@H]([C@@H](CC1CCCCC1)C(=O)N[C@H](C(=O)Nc1nccs1)C(C)(C)SC)N(O)C=O [TCMDC-138113] | 7.94% | 61.12% | 
36 | COc1cc(Cc2cnc(N)nc2N)ccc1OCc1ccc(-c2csnn2)cc1 [TCMDC-138683] | 55.66% | 28.96% | 
37 | COc1cc(-c2cnc(N)c(-c3nc4ccccc4[nH]3)c2)cc(OC)c1OC.Cl [TCMDC-138793] | 57.35% | 34.54% | 
38 | COc1ccc2c(=O)c(-c3ccc(OC(F)(F)F)cc3)c(C)[nH]c2c1 [TCMDC-138811] | 34.78% | 69.73% | 

Row | SMILES | % inhibition, Replicate A | % inhibition, Replicate B | IC50 (read-out: Pb Ookinete development assay IC50, dose response confirmation)
39 | COc1ccc2nccc(C(=O)NC3CCC(CCN4CCc5cc(C#N)ccc5C4)CC3)c2c1.Cl (centres unmarked) [TCMDC-139240] | 53.92% | 18.69% | 
40 | Cc1cc(-c2ccc(NC(=O)Nc3ccc4nccc(N5CCN(C)CC5)c4c3)cc2C)cc(C)n1.Cl [TCMDC-139355] | 53.36% | 17.60% | 
41 | CC(=O)c1c[nH]c2ccc(/C=C/C(=O)NC3CCC(CCN4CCc5ccc(C#N)cc5CC4)CC3)cc12.Cl (centres unmarked) [TCMDC-139781] | 63.32% | 35.61% | 
42 | O=c1cc(NCCCN(Cc2cc3c(Cl)cc(Cl)cc3[nH]2)Cc2cc3c(Cl)cc(Cl)cc3[nH]2)[nH]c2ccccc12 [TCMDC-139849] | 64.98% | 20.87% | 
43 | O=C(NCCCN1CCN(c2cccc(Cl)c2)CC1)c1ccc(-c2nc3cc(Cl)c(Cl)cc3[nH]2)cc1 [TCMDC-140077] | 61.66% | 14.32% | 
44 | CN(C)CCCOc1ccccc1CN1CC[C@H](NC(=O)c2ccc(Cl)c(Cl)c2)C1.O=C(O)C(F)(F)F [TCMDC-140310] | -10.45% | 74.47% | 
45 | COc1cc(NCCCNC(=O)c2cc3c(Cl)cc(Cl)cc3[nH]2)nc2ccccc12 [TCMDC-140360] | 57.79% | 39.97% | 
46 | Cc1cc(CNCCCCCCNCc2ccc(Cl)cc2)ccc1O [TCMDC-140414] | 6.85% | 50.55% | 
47 | COc1ccc2nccc(NC(=O)N3CCC(NCc4cc5ccccc5[nH]4)CC3)c2n1.O=C(O)C(=O)O [TCMDC-140671] | 55.02% | 18.69% | 
48 | Cc1c(CNCCCNc2cc(=O)c3ccccc3[nH]2)sc(-c2ccco2)c1Br.Cl [TCMDC-141065] | 4.54% | 52.38% | 
49 | O=C(N[C@H]1CCN(CCc2ccc(O[C@H]3CCNC3)cc2)C1)c1ccc(Cl)c(Cl)c1.O=C(O)C(F)(F)F [TCMDC-141066] | 57.79% | 22.51% | 
50 | COc1ccc2nccc([C@@H](O)CN3CCC(NC(=O)Cc4cccc5c(Br)cccc45)CC3)c2c1 [TCMDC-141111] | 36.89% | 51.52% | 
51 | CCCCCCNC(=O)C1Cc2c([nH]c3ccc(Br)cc23)C2(CCN(CCc3ccccc3)CC2)N1 (centres unmarked) [TCMDC-141182] | 15.53% | 59.10% | 
52 | CCN(CC)CCN(Cc1ccc(-c2ccc(C(F)(F)F)cc2)cc1)C(=O)Cn1cc(CCCCc2cccc(F)c2F)c(=O)c2ccccc21.O=C(O)C(O)C(O)C(=O)O [TCMDC-141340] | 60.00% | 20.87% | 
53 | CC(=O)Nc1cccc(CN(Cc2ccc(-c3ccc(CNCc4cccnc4)cn3)cc2)C(=O)Cc2cccnc2)c1.O=C(O)C(F)(F)F [TCMDC-141604] | 63.32% | 20.87% | 
54 | C=Cc1cc(OC)c2c(c1)c(=O)oc1c2cc(OC)c2c(O)ccc([C@H]3O[C@H]([C@H](C)O)[C@H](O)[C@H]3O)c21 [TCMDC-141972] | 89.48% | 109.41% | 
55 | O=[N+]([O-])c1ccccc1C=NN=c1c2c([nH]c3ccccc13)CCCC2 [TCMDC-142202] | 51.15% | 30.70% | 
56 | CCN(CC)CCCC(C)Nc1c(-c2ccc(C)cc2)cnc2ccccc12 (centres unmarked) [TCMDC-142264] | 53.92% | 8.32% | 

From publication PMC6753678, “Fueling Open Innovation for Malaria Transmission-Blocking Drugs: Hundreds of Molecules Targeting Early Parasite Mosquito Stages” (Frontiers in Microbiology, 2019)
